Results from BigSolDB 2.1.

C/C=C/C=C/C(=O)O
solubility (mole fraction)
Conditions	285.15 K	289.15 K	293.15 K	298.15 K	303.15 K	308.15 K	312.65 K	318.15 K	323.15 K
in MTBE	0.0403	0.0439	0.0512	0.0577	0.0693	0.0785	0.093	0.109	0.121
in acetone	0.0476	0.0528	0.0613	0.0701	0.0871	0.0968	0.115	0.14	0.156
in acetonitrile	0.00625	0.00746	0.0098	0.0112	0.0149	0.0172	0.0196	0.0248	0.0306
in ethanol	0.0442	0.0488	0.0572	0.0643	0.0747	0.0872	0.101	0.121	0.143
in ethyl acetate	0.0266	0.0314	0.0357	0.0452	0.0542	0.0626	0.0713	0.0862	0.102
in isopropanol	0.0383	0.0444	0.053	0.0613	0.0684	0.0753	0.086	0.0965	0.103
in methanol	0.0328	0.0392	0.0457	0.0553	0.0643	0.0749	0.083	0.0934	0.106
in n-butanol	0.0619	0.0738	0.0844	0.0973	0.108	0.121	0.135	0.154	0.173
